Converted amounts (≈) assume the structure as drawn.
How the values were obtained:
Type in all cases: functional
Spodoptera exigua [1] = assay: Resistance factor, LC50 for Spodoptera exigua F11 neonate larvae to LC50 for Spodoptera exigua F0 neonate larvae
Spodoptera exigua [2] = assay: Insecticidal activity against Spodoptera exigua F11 neonate larvae assessed as mortality at 27 +/- 1 degC, 60 to 70% RH measured after 72 hr; settings: F11, 72 h
Spodoptera exigua [3] = assay: Resistance factor, LC50 for Spodoptera exigua F0 neonate larvae to LC50 for Spodoptera exigua SS neonate larvae
Spodoptera exigua [4] = assay: Insecticidal activity against Spodoptera exigua F0 neonate larvae assessed as mortality at 27 +/- 1 degC, 60 to 70% RH measured after 72 hr; settings: F0, 72 h
Spodoptera exigua [5] = assay: Resistance factor, LC50 for Spodoptera exigua F22 neonate larvae to LC50 for Spodoptera exigua SS neonate larvae
Spodoptera exigua [6] = assay: Insecticidal activity against susceptible strain Spodoptera exigua SS neonate larvae assessed as mortality at 27 +/- 1 degC, 60 to 70% RH measured after 72 hr
Spodoptera exigua [7] = assay: Resistance factor, LC50 for Spodoptera exigua F11 neonate larvae to LC50 for Spodoptera exigua SS neonate larvae
Spodoptera exigua [8] = assay: Resistance factor, LC50 for Spodoptera exigua F22 neonate larvae to LC50 for Spodoptera exigua F0 neonate larvae
Spodoptera exigua [9] = assay: Insecticidal activity against Spodoptera exigua F22 neonate larvae assessed as mortality at 27 +/- 1 degC, 60 to 70% RH measured after 72 hr; settings: F22, 72 h

## CNC(=O)c1cc(Cl)cc(C)c1NC(=O)c1cc(Br)nn1-c1ncccc1Cl [CHLORANTRANILIPROLE]
Spodoptera exigua [1]
  RatioLC50: 5
Spodoptera exigua [2]
  LC50: 0.78 µg/mL (≈ 1.61 µM)
Spodoptera exigua [3]
  RatioLC50: 11.4
Spodoptera exigua [4]
  LC50: 0.157 µg/mL (≈ 0.325 µM)
Spodoptera exigua [5]
  RatioLC50: 137.4
Spodoptera exigua [6]
  LC50: 0.0137 µg/mL (≈ 0.0284 µM)
Spodoptera exigua [7]
  RatioLC50: 56.9
Spodoptera exigua [8]
  RatioLC50: 12
Spodoptera exigua [9]
  LC50: 1.88 µg/mL (≈ 3.9 µM)
